Measured values reported in patent US8829016B2, “Triazole compounds as potential anti-inflammatory agents” (King Saud University, priority 2011, dated 2014).

How the values were obtained:
[1] = molecular target: T1, ovine COX-1 (Ovis aries, UniProt P05979); experiment: In vitro COX inhibition assay, colorimetric COX (ovine) inhibitor screening kit, COX-1; type: biochemical; details: ovine COX-1, colorimetric kit
T1 construct: purchased Cayman Chemicals, USA
T1 sequence (P05979 25-600): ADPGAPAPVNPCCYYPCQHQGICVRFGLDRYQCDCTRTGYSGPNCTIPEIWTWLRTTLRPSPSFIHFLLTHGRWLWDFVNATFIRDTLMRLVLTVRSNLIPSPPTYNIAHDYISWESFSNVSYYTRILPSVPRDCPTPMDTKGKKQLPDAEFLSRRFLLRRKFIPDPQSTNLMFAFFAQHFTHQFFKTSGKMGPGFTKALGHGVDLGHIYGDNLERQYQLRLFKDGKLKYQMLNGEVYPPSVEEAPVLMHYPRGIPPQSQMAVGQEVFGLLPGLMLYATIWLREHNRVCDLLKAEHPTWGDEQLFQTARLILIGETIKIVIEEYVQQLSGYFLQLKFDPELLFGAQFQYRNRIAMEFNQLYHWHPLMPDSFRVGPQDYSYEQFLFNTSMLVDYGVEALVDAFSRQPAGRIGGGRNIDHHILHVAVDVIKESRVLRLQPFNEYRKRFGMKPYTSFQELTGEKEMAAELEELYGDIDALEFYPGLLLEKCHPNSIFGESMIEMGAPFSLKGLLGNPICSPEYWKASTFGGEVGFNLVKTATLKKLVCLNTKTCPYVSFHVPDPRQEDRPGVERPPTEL
Procedure: (§1) Inhibition of the enzymes was determined with the colorimetric COX (ovine) inhibitor screening assay.
(§2) In Vitro COX Inhibition Assay
(§3) The final compounds were evaluated for their ability to inhibit ovine COX-1 and COX-2 enzymes [50% percent inhibition is expressed in molar concentration […]] […] Inhibition of the enzymes was determined with the colorimetric COX (ovine) inhibitor screening assay kit (Cayman Chemicals, USA) using ELISA reader.

[2] = tested on: carrageenan-induced rat paw edema; experiment: In vivo carrageenan induced rat paw edema assay; set-up: species or system rat (male Sprague-Dawley); details: compound intravenously in DMSO one hour before carrageenan, vs vehicle control = 0%
Procedure: (§4) Anti-inflammatory activity was determined by the carrageenan-induced rat paw edema method described by Winter et al., Proc. Soc. Exp. Biol. Med. 1962, 111, 544, using male Sprague-Dawley rats weighing 150 to 200 g (6-8 weeks old). The protocol for the animal experiments performed was approved by the Research Ethics Committee and Animal Care and Use Committee, Govt. of Saudi Arabia. Compounds were administered intravenously in dimethyl sulfoxide solution. Paw edema was induced by intradermal injection of 50 μ. of 1% λ-carrageenan (Sigma, USA) into the subplantar region of the right hind paw, after one hour of compound administration. […] The control group received only the vehicle. Increase in paw volume was compared with that in the control group and percent inhibition was calculated taking the values in the control group as 0% inhibition.
In Vivo Carrageenan Induced Rat Paw Edema Assay
as §4, with “(Winter” for “Winter”, “al.” for “al.,”, “544). Male” for “544, using male”, “old) were used in groups of six animals per group for the experiments. The animals were housed in a room with temperature of 22±2° C. under a 12 h light/dark cycle. They were allowed free access to food and water ad libitum.” for “old).”, “μl” for “μ.”, “X-carrageenan” for “λ-carrageenan”

[3] = molecular target: T2, ovine COX-2 (Ovis aries, UniProt P79208); experiment: In vitro COX inhibition assay, colorimetric COX (ovine) inhibitor screening kit, COX-2; type: biochemical; details: for IC50: ovine COX-2, colorimetric kit; for Selectivity index (COX-1/COX-2): ratio of IC50 COX-1 / IC50 COX-2
T2 construct: purchased Cayman Chemicals, USA
T2 sequence (P79208 17-603): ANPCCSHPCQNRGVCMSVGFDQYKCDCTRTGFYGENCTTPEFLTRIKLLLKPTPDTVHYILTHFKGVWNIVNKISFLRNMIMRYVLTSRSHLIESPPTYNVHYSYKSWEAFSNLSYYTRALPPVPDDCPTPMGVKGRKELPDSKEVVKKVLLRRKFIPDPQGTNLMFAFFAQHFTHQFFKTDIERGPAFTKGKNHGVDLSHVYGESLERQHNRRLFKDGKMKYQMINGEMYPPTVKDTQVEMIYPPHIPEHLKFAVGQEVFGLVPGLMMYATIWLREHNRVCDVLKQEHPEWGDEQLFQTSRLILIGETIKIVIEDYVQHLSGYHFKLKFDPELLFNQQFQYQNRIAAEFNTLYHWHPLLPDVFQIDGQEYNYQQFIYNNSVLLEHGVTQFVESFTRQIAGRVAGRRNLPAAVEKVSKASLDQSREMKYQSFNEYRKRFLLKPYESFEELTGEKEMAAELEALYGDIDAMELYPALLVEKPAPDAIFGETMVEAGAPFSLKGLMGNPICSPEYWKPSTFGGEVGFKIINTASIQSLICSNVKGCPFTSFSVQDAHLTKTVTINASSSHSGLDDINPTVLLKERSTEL
Procedure: as §1, §2, §3

In the case of OCn1nc(-c2ccncc2)n(-c2ccccc2)c1=S [Compound 7, 2-Hydroxymethyl-4-phenyl-5-pyridine-4-yl-2,4-dihydro-3H-1,2,4-triazole-3-thione], the IC50 [1] is reported as 3.5 nM, the “AI activity % inhibition at 1 hr (carrageenan paw edema)” value (shortened to “AI activity % inhibition at 1 hr”) [2] is reported as 25 ± 1.8% and the “AI activity % inhibition at 2 hr (carrageenan paw edema)” value (“AI activity % inhibition at 2 hr” for short) [2] is reported as 66 ± 2.6%. For the same molecule, the IC50 [3] was 0.8 nM, the “Selectivity index (COX-1/COX-2)” value [3] was 4.38 and the melting point was 277 to 278 °C.
In the case of CCOC(=O)n1nc(-c2ccncc2)n(-c2ccccc2)c1=S [Compound 6, Ethyl[4-phenyl-5-pyridine-4-yl-3-thioxo-2,4-dihydro-3H-1,2,4-triazole-2-yl]carboxylate], the IC50 [1] is reported as 9.2 nM, the “AI activity % inhibition at 1 hr” value [2] is reported as 0.0% and the “AI activity % inhibition at 2 hr” value [2] is reported as 5 ± 1.8%. The IC50 [3] was 7.8 nM, the “Selectivity index (COX-1/COX-2)” value [3] was 1.18 and the melting point was 231 to 232 °C.
In the case of Cc1ccc(-c2cc(C(F)(F)F)nn2-c2ccc(S(N)(=O)=O)cc2)cc1 [Celecoxib, reference compound], the “AI activity % inhibition at 1 hr” value [2] is reported as 50 ± 2.1% and the “AI activity % inhibition at 2 hr” value [2] is reported as 71.5 ± 3.7%.
With CCN(CC)Cn1nc(-c2ccncc2)n(-c2ccccc2)c1=S [Compound 9, 2-Diethylaminomethyl-4-phenyl-5-pyridine-4-yl-2,4-dihydro-3H-1,2,4-triazole-3-thione] the IC50 [1] was 3.8 nM, the “AI activity % inhibition at 1 hr” value [2] was 45 ± 1.1% and the “AI activity % inhibition at 2 hr” value [2] was 66 ± 1.2%. The IC50 [3] was 1.1 nM, the “Selectivity index (COX-1/COX-2)” value [3] was 3.46 and the melting point was 216 to 217 °C.
For C=CCCCSC1NN=C(c2ccncc2)N1c1ccccc1 (stereo not drawn) [Compound 5], the melting point was 132 to 133 °C.
Molecule C#CCSC1NN=C(c2ccncc2)N1c1ccccc1 (stereo not drawn) [Compound 3, 4-Phenyl-3-(prop-2-ynylthio)-5-pyridine-4-yl-2,4-dihydro-3H-1,2,4-triazole] has a melting point of 151 to 152 °C.
For CN(CCO)Cn1nc(-c2ccncc2)n(-c2ccccc2)c1=S [Compound 11, N-Methyl-N-[(4-phenyl-5-pyridine-4-yl-3-thioxo-2,4-dihydro-3H-1,2,4-triazol-2-y)methyl]-2-aminoethanol], the IC50 [1] was 4.5 nM, the “AI activity % inhibition at 1 hr” value [2] was “Zero” and the “AI activity % inhibition at 2 hr” value [2] was 16 ± 5.9%. The IC50 [3] was 2.1 nM, the “Selectivity index (COX-1/COX-2)” value [3] was 2.14 and the melting point was 173 to 174 °C.
For S=c1n(CN2CCCC2)nc(-c2ccncc2)n1-c1ccccc1 [Compound 10, 4-Phenyl-5-pyridine-4-yl-2-pyrrolidinylmethyl-2,4-dihydro-3H-1,2,4-triazole-3-thione], the IC50 [1] was 3.7 nM, the “AI activity % inhibition at 1 hr” value [2] was 62 ± 3.4% and the “AI activity % inhibition at 2 hr” value [2] was 66 ± 1.5%. For the same molecule, the IC50 [3] was 0.9 nM and the “Selectivity index (COX-1/COX-2)” value [3] was 4.11.
Molecule CCCC(C)SC1NN=C(c2ccncc2)N1c1ccccc1 (stereo not drawn) [Compound 4, 3-[(Pent-2-yl)thio]-4-phenyl-5-pyridine-4-yl-2,4-dihydro-3H-1,2,4-triazole] has a melting point of 96 to 97 °C.
For S=c1n(CNCc2ccc(Cl)cc2)nc(-c2ccncc2)n1-c1ccccc1 [Compound 13, 2-[(4-Chlorobenzylamino)methyl]-4-phenyl-5-pyridine-4-yl-2,4-dihydro-3H-1,2,4-triazole-3-thione], the IC50 [1] was 8.7 nM, the “AI activity % inhibition at 1 hr” value [2] was 16 ± 5.7% and the “AI activity % inhibition at 2 hr” value [2] was 19 ± 6.3%. The IC50 [3] was 6.8 nM and the “Selectivity index (COX-1/COX-2)” value [3] was 1.38.
For C#CCSc1nnc(-c2ccncc2)n1-c1ccccc1 [Compound 3, 4-Phenyl-3-(prop-2-ynylthio)-5-pyridine-4-yl-2,4-dihydro-3H-1,2,4-triazole], the IC50 [1] was 7.5 nM, the “AI activity % inhibition at 1 hr” value [2] was 10 ± 5.4% and the “AI activity % inhibition at 2 hr” value [2] was 12 ± 4.9%. The IC50 [3] was 5.3 nM and the “Selectivity index (COX-1/COX-2)” value [3] was 1.42.
In the case of CCCC(C)Sc1nnc(-c2ccncc2)n1-c1ccccc1 (stereo not drawn) [Compound 4, 3-[(Pent-2-yl)thio]-4-phenyl-5-pyridine-4-yl-2,4-dihydro-3H-1,2,4-triazole], the IC50 [1] is reported as 3.7 nM, the “AI activity % inhibition at 1 hr” value [2] is reported as 36 ± 2.1% and the “AI activity % inhibition at 2 hr” value [2] is reported as 50 ± 2.5%. The IC50 [3] was 1.4 nM and the “Selectivity index (COX-1/COX-2)” value [3] was 2.64.
With S=c1n(CNc2ccc(Br)cc2)nc(-c2ccncc2)n1-c1ccccc1 [Compound 12, 2-[(4-Bromophenylamino)methyl]-4-phenyl-5-pyridine-4-yl-2,4-dihydro-3H-1,2,4-triazole-3-thione] the IC50 [1] was 6.4 nM, the “AI activity % inhibition at 1 hr” value [2] was 12.5 ± 1.6% and the “AI activity % inhibition at 2 hr” value [2] was 29 ± 3.8%. For the same molecule, the IC50 [3] was 3.9 nM, the “Selectivity index (COX-1/COX-2)” value [3] was 1.64 and the melting point was 208 to 209 °C.
For C=CCCCSc1nnc(-c2ccncc2)n1-c1ccccc1 [Compound 5], the IC50 [1] was 4.4 nM, the “AI activity % inhibition at 1 hr” value [2] was 9 ± 1.3% and the “AI activity % inhibition at 2 hr” value [2] was 38 ± 1.8%. The IC50 [3] was 2.6 nM and the “Selectivity index (COX-1/COX-2)” value [3] was 1.69.
For CN(C)Cn1nc(-c2ccncc2)n(-c2ccccc2)c1=S [Compound 8, 2-Dimethylaminomethyl-4-phenyl-5-pyridine-4-yl-2,4-dihydro-3H-1,2,4-triazole-3-thione], the IC50 [1] was 3.1 nM, the “AI activity % inhibition at 1 hr” value [2] was 51 ± 1.5% and the “AI activity % inhibition at 2 hr” value [2] was 76 ± 2.8%. For the same molecule, the IC50 [3] was 0.9 nM, the “Selectivity index (COX-1/COX-2)” value [3] was 3.44 and the melting point was 173 to 174 °C.
